According to ChEMBL document CHEMBL1151293, “End-Product Regulation of Ergot Alkaloid Formation in Intact Cells and Protoplasts of Claviceps Species, Strain SD 58” (1980):

Experiments:
Claviceps [1] = assay: Inhibition of DMAT synthase in Claviceps SD 58 assessed as conversion of 1-14C]dimethylallylpyrophosphate to dimethylallyltryptophan at 3 mM after 5 days; set-up: scale not given: the % may be the effect or the level left
Claviceps [2] = assay: Inhibition of alkaloid biosynthesis in intact cells of Claviceps SD 58 assessed as incorporation of L-[methylene-14C] tryptophan at 3 mM; format: functional
Claviceps [3] = assay: Inhibition of alkaloid biosynthesis in Claviceps SD 58 protoplast assessed as incorporation of L-[methylene-14C] tryptophan at 4 mM relative to control; format: functional; set-up: scale not given: the % may be the effect or the level left
Claviceps [4] = assay: Inhibition of alkaloid biosynthesis in intact cells of Claviceps SD 58 assessed as incorporation of L-[methylene-14C] tryptophan at 3 mM after 24 hrs relative to control; format: functional

Question: Which Activity (Claviceps [1]) does the source give for `CN1CC(CO)=C[C@@H]2c3cccc4[nH]cc(c34)C[C@H]21` [listing 1 of 3 here] here?
Answer: Its Activity is 70%.

Question: With `CN1CC(CO)=C[C@@H]2c3cccc4[nH]cc(c34)C[C@H]21` [listing 2 of 3 here] as the compound, how does the inhibition at 3000 µM (Claviceps [2]) read?
Answer: Its inhibition at 3000 µM is 29%.

Question: For `CC1=C[C@@H]2c3cccc4[nH]cc(c34)C[C@H]2N(C)C1`, which Activity (Claviceps [1]) is on record?
Answer: Its Activity is 90%.

Question: Which Activity (Claviceps [3]) does the source give for `CN1CC(CO)=C[C@@H]2c3cccc4[nH]cc(c34)C[C@H]21` [listing 3 of 3 here] here?
Answer: Its Activity is 50%.

Question: And the “fold change (FC)” value (Claviceps [4])?
Answer: Its value is 2.
